Data from patent US11919893B1, “7-(4-((5-(2-bromobenzylideneamino)-2-thioxo-1,3,4-thiadiazol-3(2H)-yl)methyl) piperazin-1-yl)-1-cyclopropyl-6-fluoro-4-oxo-1,4-dihydroquinoline-3-carboxylic acid as an anti-inflammatory compound” (KING FAISAL UNIVERSITY, priority 2023, dated 2024).

Molecular target: Bovine serum albumin (Bos taurus, UniProt P02769)
Assay: Bovine serum albumin (BSA) protein denaturation assay, in vitro anti-inflammatory activity
Type: biochemical
Description: Bovine Serum Albumin Assay (BSA) In vitro-inflammatory activities of the tested samples were determined using a modified method of the BSA assay reported by Williams et al. BSA solution (0.4%, w/v) was prepared in Tris Buffered Saline. The pH was adjusted to 6.4 with glacial acetic acid. Different dilutions of 20, 40, 60, 80, and 100 μg/mL of 7-(4-((5-(2-bromobenzylideneamino)-2-thioxo-1,3,4-thiadiazol-3(2H)-yl)methyl)piperazin-1-yl)-1-cyclopropyl-6-fluoro-4-oxo-1,4-dihydroquinoline-3-carboxylic acid (IV) the stock solutions were added to test tubes containing 1 mL of 0.4%, w/v BSA buffer solution. Both negative (solvent) and positive (aspirin) controls were assayed in a similar manner. The solutions were then heated in a water bath at 72° C. for 10 minutes and cooled for 20 minutes under laboratory conditions. The turbidity of the solutions (level of protein precipitation) was measured at 660 nm in Spectrophotometer (V-770 UV-Visible/NIR Spectrophotometer). The percentage inhibition of precipitation (protein denaturation) was determined relative to the negative control using the following equation: [formula] % Anti-Denaturation Activity=% Inhibition of Protein Denaturation=% Anti-inflammatory Activity

[1] = read-out: % Inhibition of protein denaturation (Bovine serum albumin)

Sequence of Bovine serum albumin (P02769 25-607): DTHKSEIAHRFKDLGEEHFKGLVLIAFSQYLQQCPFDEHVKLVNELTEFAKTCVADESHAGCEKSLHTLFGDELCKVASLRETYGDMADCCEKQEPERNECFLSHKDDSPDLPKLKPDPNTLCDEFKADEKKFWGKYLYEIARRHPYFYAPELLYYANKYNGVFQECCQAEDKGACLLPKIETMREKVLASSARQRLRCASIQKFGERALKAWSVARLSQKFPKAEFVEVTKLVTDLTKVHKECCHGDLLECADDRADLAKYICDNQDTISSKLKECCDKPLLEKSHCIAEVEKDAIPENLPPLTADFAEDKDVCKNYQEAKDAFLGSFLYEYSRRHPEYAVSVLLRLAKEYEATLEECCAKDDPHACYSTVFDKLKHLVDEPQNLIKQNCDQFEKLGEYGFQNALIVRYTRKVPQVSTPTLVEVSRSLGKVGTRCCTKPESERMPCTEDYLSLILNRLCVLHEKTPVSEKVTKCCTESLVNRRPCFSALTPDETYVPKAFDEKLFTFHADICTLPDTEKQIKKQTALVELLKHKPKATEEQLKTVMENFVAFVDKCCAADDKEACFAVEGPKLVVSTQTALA

in vitro anti-inflammatory activity (in words) (BSA denaturation assay): considerable anti-inflammatory effect
inhibition at 20 µg/mL [1]: 62.6%
inhibition at 40 µg/mL [1]: 73.1%
inhibition at 60 µg/mL [1]: 75.2%
inhibition at 80 µg/mL [1]: 82%
inhibition at 100 µg/mL [1]: 84.8%
Structure (SMILES): O=C(O)c1cn(C2CC2)c2cc(N3CCN(Cn4nc(N=Cc5ccccc5Br)sc4=S)CC3)c(F)cc2c1=O [IV, 7-(4-((5-(2-bromobenzylideneamino)-2-thioxo-1,3,4-thiadiazol-3(2H)-yl)methyl)piperazin-1-yl)-1-cyclopropyl-6-fluoro-4-oxo-1,4-dihydroquinoline-3-carboxylic acid]
